Test results taken from patent US20240277890A1, “ANTIMICROBIAL ARTICLES COMPRISING POLYURETHANE” (Amicoat AS, priority 2021, published 2024).
≈ marks a conversion by molar mass, not a printed value. Where two headings read alike, the source gives them in different places. Peptide text beside a SMILES is read from it. * marks the point of attachment. NHPhenethyl = c1ccc(CCN*)cc1

How the values were obtained:
[1] = test system: Staphylococcus aureus, strain ATCC 25923
[2] = test system: Methicillin resistant Staphylococcus epidermidis (MRSE) strain ATCC 27626
[3] = test system: Methicillin resistant Staphylococcus aureus (MRSA) strain ATCC 33591
[4] = test system: Staphylococcus haemolyticus - antibiotic susceptible clinical isolate; conditions: S. haemolyticus antibiotic susceptible isolate
[5] = test system: Haemophilus influenzae - ATCC 47247; test: MIC microbroth dilution (CLSI), extra control strain; set-up: unit not given beside the values; conditions: H. influenzae ATCC 47247; plate type HTM
[6] = test system: Salmonella sp - multi-drug resistant clinical isolate; test: MIC microbroth dilution (CLSI); format: cell-based
[7] = test system: Staphylococcus aureus ATCC 29213 - antibiotic-susceptible control strain; set-up: MIC (repeat control strain): unit not given beside the values; conditions: S. aureus ATCC 29213
[8] = test system: Salmonella sp - antibiotic-susceptible clinical isolate; test: MIC microbroth dilution (CLSI); format: cell-based
[9] = test system: Microsporum canis - G.R. Micro collection; conditions: M. canis
[10] = test system: Shigella sp - antibiotic-susceptible clinical isolate; test: MIC microbroth dilution (CLSI); format: cell-based
[11] = test system: Streptococcus pyogenes CS301; test: Murine skin infection model, one day topical treatment; format: in vivo, mice
Experimental: (§1) The skin of mice was infected with Staphylococcus aureus or Streptococcus pyogenes and subsequently given a total of three treatments at three hourly intervals. Three hours after the last treatment, skin biopsies were collected and the number of colony forming units (CFUs) present in the skin sample was determined. Results are shown in FIGS. 3, 4 and 5 expressed as the number of colony forming units per mouse.

[12] = test system: Staphylococcus aureus FDA486; test: as above; format: in vivo, mice; conditions: cream or gel containing 2% (w/w) of compound; three topical treatments at three hourly intervals; compared to placebo
Experimental: as §1

[13] = test system: Clostridium difficile - antibiotic-susceptible clinical isolate; test: MIC microbroth dilution (CLSI); format: cell-based; set-up: unit not given beside the values; conditions: C. difficile antibiotic-susceptible
Experimental: Supplemented Brucella broth (SBB) was used for the anaerobic strains with an inoculum of approximately 10^6 CFU/mL. SBB is a broth consisting of 1% peptone, 0.5% ‘Lab-lemco’, 1% glucose and 0.5% sodium chloride supplemented with 5 μg/L haemin and 1 μg/L vitamin K (both obtained from Sigma Aldrich Ltd.) Yeast and filamentous fungal MIC were performed in MOPS buffered RPMI 1640 medium (MOPS buffer obtained from Sigma Aldrich Ltd., RPMI 1640 obtained from Invitrogen Ltd, Paisley, Scotland). The yeast inocula were in the range 7.5×10^2-4×10^3 CFU/mL and the filamentous fungi approximately 8×10^3-1×10^5 CFU/mL.

[14] = test system: Pseudomonas aeruginosa ATCC27853 - antibiotic-susceptible type strain; set-up: MIC (repeat control strain): unit not given beside the values; conditions: P. aeruginosa ATCC 27853
[15] = test system: Bacteroides fragilis - ATCC 25285; test: MIC microbroth dilution (CLSI), extra control strain; format: cell-based; set-up: unit not given here; conditions: B. fragilis ATCC 25285; SBB
[16] = test system: Eggerthella lenta - ATCC 43055; test: as above; format: cell-based; set-up: unit not given here; conditions: E. lenta ATCC 43055; SBB
[17] = test system: Escherichia coli ATCC25922 - antibiotic-susceptible type strain; set-up: MIC (repeat control strain): unit not given beside the values; conditions: E. coli ATCC 25922
[18] = test system: Enterococcus faecalis - ATCC 29212 antibiotic-susceptible control strain; set-up: MIC (repeat control strain): unit not given beside the values; conditions: E. faecalis ATCC 29212
[19] = test system: Candida parapsilosis ATCC 22019; test: MIC microbroth dilution (CLSI), extra control strain; format: cell-based; set-up: unit not given here; conditions: C. parapsilosis ATCC 22019; RPMI 1640
E. coli = conditions: Table 5
P. aeruginosa = conditions: Table 5
trypsin = test: in vitro; format: in vitro ADME; conditions: pH 8.6
Experimental: Each peptide was dissolved in a 0.1 M NH4HCO3 buffer (pH 6.5) to yield a final peptide concentration of 1 mg/ml. A trypsin solution was prepared by dissolving 1 mg of trypsin in 50 ml 0.1 M NH4HCO3 buffer (pH 8.2). For the stability determination, 250 μl freshly made trypsin solution and 250 μl peptide solution were incubated in 2 ml of 0.1 M NH4HCO3 buffer (pH 8.6) at 37° C. on a rocking table. Aliquots of 0.5 ml were sampled at different time intervals, diluted with 0.5 ml water:acetonitrile (60:40 v/v) containing 1% TFA and analysed by RP-HPLC as described above. Samples without trypsin addition taken at 0 h and after 20 h at 37° C. were used as negative controls. Integration of the peak area at 254 nm for samples taken during the first 5 hours of the assay was used to generate the τ1/2.

[20] = Staphylococcus aureus ATCC 25923

## N=C(N)NCCC[C@H](NC(=O)[C@H](Cc1ccc(-c2ccc(-c3ccccc3)cc2)cc1)NC(=O)[C@@H](N)CCCNC(=N)N)C(=O)NCCc1ccccc1 [Compound 5]
[1]; [20]
  MIC S. aureus: 5 µM (≈ 3.66 µg/mL)
[2]; MRSE ATCC 27626
  MIC MRSE: 3 µM (≈ 2.2 µg/mL)
[3]; MRSA ATCC 33591
  MIC MRSA: 3 µM (≈ 2.2 µg/mL)

## CC(C)(C)c1cc(C(C)(C)C)c2[nH]c(C(C)(C)C)c(CC(NC(=O)C(N)CCCNC(=N)N)C(=O)NC(CCCNC(=N)N)C(=O)NCCc3ccccc3)c2c1 (stereo not shown) [Compound 2]
[4]
  MIC: 4
[5]
  MIC (control strain): 4
[6]
  MIC: 8
[7]; plate type Fresh MHB
  MIC (repeat control strain): 2
[7]; plate type Frozen MHB
  MIC (repeat control strain): 4
[8]
  MIC: 8
[9]
  MIC: 8
[10]
  MIC: 8
[11]; 1% or 2% gel, three topical treatments at three hourly intervals, compared to placebo gel and bactroban
  number of CFUs in skin biopsy: more effective at reducing the number of CFUs than the placebo gel or the bactroban
[11]; gel containing 2% compared to gel containing 1%
  number of CFUs in skin biopsy, 2% gel versus 1% gel: more effective than the gel containing only 1% of compound 2
[12]
  number of CFUs in skin biopsy: the number of CFUs was reduced
[13]
  MIC: 16
[14]; plate type Fresh MHB
  MIC (repeat control strain): 8
[14]; plate type Frozen MHB
  MIC (repeat control strain): 8
[15]
  MIC (control strain): 64
[16]
  MIC (control strain): 32
[17]; plate type Fresh MHB
  MIC (repeat control strain): 8
[17]; plate type Frozen MHB
  MIC (repeat control strain): 8
[18]; plate type Fresh MHB
  MIC (repeat control strain): 4
[18]; plate type Frozen MHB
  MIC (repeat control strain): 8
[19]
  MIC (control strain): 8

## CC(C)CNC(=O)[C@H](CCCNC(=N)N)NC(=O)[C@H](Cc1c(C(C)(C)C)[nH]c2c(C(C)(C)C)cc(C(C)(C)C)cc12)NC(=O)[C@@H](N)CCCNC(=N)N [Compound 12]
[1]; ATCC 25923
  S. aureus (MIC): <2 µg/mL
S. pyogenes
  S. pyogenes (MIC): 2 µg/mL
C. albicans
  C. albicans (MIC): 10 µg/mL
[2]; ATCC 27626
  MRSE (MIC): 2 µg/mL
[3]; ATCC 33591
  MRSA (MIC): 3 µg/mL

## CC(C)(C)c1cc(C(C)(C)C)c2[nH]c(C(C)(C)C)c(C[C@H](NC(=O)[C@@H](N)CCCNC(=N)N)C(=O)N[C@@H](CCCNC(=N)N)C(=O)NC3CCCCC3)c2c1 [Compound 13]
[1]; ATCC 25923
  S. aureus (MIC): <2 µg/mL
S. pyogenes
  S. pyogenes (MIC): <2 µg/mL
C. albicans
  C. albicans (MIC): 10 µg/mL
[2]; ATCC 27626
  MRSE (MIC): 2 µg/mL
[3]; ATCC 33591
  MRSA (MIC): 2 µg/mL

## CCCCCCCCCCCCCCCCNC(=O)[C@H](CCCNC(=N)N)NC(=O)[C@H](Cc1c(C(C)(C)C)[nH]c2c(C(C)(C)C)cc(C(C)(C)C)cc12)NC(=O)[C@@H](N)CCCNC(=N)N [Compound 11]
E. coli
  E. coli (MIC): >100 µg/mL
[1]; [20]
  S. aureus (MIC): 5 µg/mL
S. pyogenes; Table 5
  S. pyogenes (MIC): 6 µg/mL
C. albicans; Table 5
  C. albicans (MIC): >100 µg/mL
[2]; MRSE ATCC 27626
  MRSE (MIC): 4 µg/mL
P. aeruginosa
  P. aeruginosa (MIC): >100 µg/mL
[3]; MRSA ATCC 33591
  MRSA (MIC): 4 µg/mL

## CCCCNC(=O)[C@H](CCCNC(=N)N)NC(=O)[C@H](Cc1c(C(C)(C)C)[nH]c2c(C(C)(C)C)cc(C(C)(C)C)cc12)NC(=O)[C@@H](N)CCCNC(=N)N [Compound 9]
[1]; ATCC 25923
  S. aureus (MIC): 2 µg/mL
S. pyogenes
  S. pyogenes (MIC): 2 µg/mL
C. albicans
  C. albicans (MIC): 10 µg/mL
[2]; ATCC 27626
  MRSE (MIC): <2 µg/mL
[3]; ATCC 33591
  MRSA (MIC): 3 µg/mL

## N=C(N)NCCC[C@H](NC(=O)[C@H](Cc1ccc(-c2cccc3ccccc23)cc1)NC(=O)[C@@H](N)CCCNC(=N)N)C(=O)NCCc1ccccc1 [Compound 3]
[2]; MRSE ATCC 27626
  MIC MRSE: 3 µM (≈ 2.12 µg/mL)
[3]; MRSA ATCC 33591
  MIC MRSA: 3 µM (≈ 2.12 µg/mL)

## N=C(N)NCCC[C@H](NC(=O)[C@H](Cc1c[nH]c2ccccc12)NC(=O)[C@@H](N)CCCNC(=N)N)C(=O)NCCc1ccccc1 [Compound 6, reference compound] (H-Arg-Trp-Arg-NHPhenethyl)
[1]; [20]
  MIC S. aureus: 145 µM (≈ 89.9 µg/mL)
[2]; MRSE ATCC 27626
  MIC MRSE: 81 µM (≈ 50.2 µg/mL)
[3]; MRSA ATCC 33591
  MIC MRSA: 97 µM (≈ 60.1 µg/mL)

## CCCNC(=O)[C@H](CCCNC(=N)N)NC(=O)[C@H](Cc1c(C(C)(C)C)[nH]c2c(C(C)(C)C)cc(C(C)(C)C)cc12)NC(=O)[C@@H](N)CCCNC(=N)N [Compound 10]
[1]; ATCC 25923
  S. aureus (MIC): 2 µg/mL
S. pyogenes
  S. pyogenes (MIC): 2 µg/mL
C. albicans
  C. albicans (MIC): 10 µg/mL
[2]; ATCC 27626
  MRSE (MIC): <2 µg/mL
[3]; ATCC 33591
  MRSA (MIC): 3 µg/mL

## N=C(N)NCCC[C@H](NC(=O)[C@H](Cc1ccc(-c2ccc3ccccc3c2)cc1)NC(=O)[C@@H](N)CCCNC(=N)N)C(=O)NCCc1ccccc1 [Compound 1]
[1]; [20]
  MIC S. aureus: 4 µM (≈ 2.83 µg/mL)
trypsin
  half-life at 0.1 mg/ml: > 24 h
[2]; MRSE ATCC 27626
  MIC MRSE: <3 µM
[3]; MRSA ATCC 33591
  MIC MRSA: <3 µM

## CC(C)(C)c1cc(C(C)(C)C)c2[nH]c(C(C)(C)C)c(C[C@H](NC(=O)[C@@H](N)CCCNC(=N)N)C(=O)N[C@@H](CCCNC(=N)N)C(=O)NC3CCCC3)c2c1 [Compound 14]
[1]; ATCC 25923
  S. aureus (MIC): <2 µg/mL
S. pyogenes
  S. pyogenes (MIC): 2 µg/mL
C. albicans
  C. albicans (MIC): 10 µg/mL
[2]; ATCC 27626
  MRSE (MIC): <2 µg/mL
